Values of other authors, collected in PMC5731893, “Therapeutic potential of an anti-angiogenic multimodal biomimetic peptide in hepatocellular carcinoma” (Oncotarget, 2017).

Experiments:
[1] = test system: HCC tumors
Excerpt: Angiogenesis is a common feature of many solid tumors and plays a critical role in growth and metastatic progression of HCC. […] Aflibercept speci ... || The dual inhibition of cancer and endothelial cell functions may synergize through the reduction of resistance pathways normally associated with anti-angiogenic therapies. While angiogenesis is important for the exponential growth of cancerous tissue, non-angiogenic processes for tumor vascularization may help bypass the effects of strictly angiogenesis-based therapies. In particular, vessel co-option, or the hijacking of existing vasculature for tumor growth, is observed in models of HCC and has been associated with the diminishing efficacy of extended sorafenib treatment. Tumors from orthoto ...

[2] = test system: HCC cells
Excerpt: Liver cancer is one of the top causes of cancer related mortality in the world and the incidence has been increasing in the US for decades. Surgical resection and/or liver transplantation are the curative options for early diagnosed hepatocellular cancers. However, the prognosis for advanced stages of the disease is dismal owing to a lack of chemotherapeutic options. A series of anti-angiogenic drugs have been undergoing clinical trials for some time but they have not had much success because of drug related toxicity and partly because many cases of HCC are refractory to different ...

[3] = test system: HCC
Excerpt: Liver cancer is one of the top causes of cancer related mortality in the world and the incidence has been increasing in the US for decades. Surgical resection and/or liver transplantation are the curative options for early diagnosed hepatocellular cancers. However, the prognosis for advanced stages of the disease is dismal owing to a lack of chemotherapeutic options. A series of anti-angiogenic drugs have been undergoing clinical trials for some time but they have not had much success because of drug related toxicity and partly because many cases of HCC are refractory to different ... || Compared to normal liver cells, HCC tumor cells are often associated with the dysregulation of numerous cellular signaling pathways. Expression changes or mutations of growth factor signaling components, specifically c-Met and insulin-like growth factor 1 receptor (IGF1R) are well documented in the pathogenesis of HCC [10]. Overexpression of c-Met and IGF1R is observed in 20-48% or 33% of HCC tumors, respectively, as are increases in the expression of the IGF1R ligand IGF-II [11]. Downstream effectors of insulin receptor substrates 1 (IRS-1) and 2 (IRS-2) have likewise been r ...

CNC(=O)c1cc(Oc2ccc(NC(=O)Nc3ccc(Cl)c(C(F)(F)F)c3)cc2)ccn1 [Sorafenib]
vessel co-option vs angiogenic mechanisms after administration ([1]; orthotopic mouse models of HCC): significant preference towards vessel co-option over angiogenic mechanisms | effect on sensitivity to apoptotic stimuli [2]: sensitize the cells to apoptotic stimuli | effect on HCC proliferation ([2]; within the S/G2/M phases of the cell cycle): slow HCC proliferation | side effects ([3]; human, in vivo): clinically significant

CNC(=O)c1cc(Oc2ccc(NC(=O)Nc3ccc(Cl)c(C(F)(F)F)c3)c(F)c2)ccn1 [regorafenib]
increase of median survival ([3]; advanced HCC that progress under sorafenib, phase III): 3 months

O=C1NC(=O)[C@@H](c2cn3c4c(cccc24)CCC3)[C@@H]1c1c[nH]c2ccccc12 [tivantinib]
effect on overall survival ([3]; phase II, c-Met positive HCC): significantly improve overall survival

aflibercept: soluble decoy construct containing a fusion of VEGFR1 and VEGFR2 ligand binding domains
effect on tumor growth ([1]; several mouse models of HCC): inhibit tumor growth
